Laboratory results published in patent US4978663A, “5-(1-aminocyclohexyl)-2(1H)-pyridinone compounds which have pharmaceutical utility” (priority 1989, dated 1990).

Legend:
[1] = Dark Avoidance Assay (reversal of scopolamine induced memory deficit); format: in vivo; conditions: mice, s.c., retest after 24 hours
Description: In this assay mice are tested for their ability to remember an unpleasant stimulus for a period of 24 hours. A mouse is placed in a chamber that contains a dark compartment; a strong incadescent light drives it to the dark compartment, where an electric shock is administered through metal plates on the floor. The animal is removed from the testing apparatus and tested again, 24 hours later, for the ability to remember the electric shock.
If scopolamine, an anticholinergic that is known to cause memory impairment, is administered before an animal's initial exposure to the test chamber, the animal re-enters the dark compartment shortly after being placed in the test chamber 24 hours later.

[2] = 2-phenyl-1,4-benzoquinone-induced writhing test in mice (PQW), analgesic activity; format: in vivo

Row | SMILES | Analgesic PQW, % Inhibition of Writhing at 20 mg/kg., s.c. [2] [%] | further results
1 | CC(=O)NC1(c2ccc(=O)n(C)c2)CCCCC1 [N-[1-(1,6-Dihydro-1-methyl-6-oxo-3-pyridinyl)cyclohexyl]acetamide] | – | % of animals with scopolamine induced memory deficit reversal ([1]; 0.63 mg/kg): 33%
2 | O=C(CN1CCC(C(=O)c2ccc(F)cc2)CC1)NC1(c2ccc(=O)[nH]c2)CCCCC1 [N-[1-(1,6-Dihydro-6-oxo-3-pyridinyl)cyclohexyl][4-(4-fluorobenzoyl)]-1-piperidineacetamide] | 77 | –
3 | CCC(=O)O[C@](Cc1ccccc1)(c1ccccc1)[C@H](C)CN(C)C [Propoxyphene, reference compound] | – | Analgesic PQW, % Inhibition of Writhing ([2]; 3.9 mg/kg, s.c.): 50%
4 | CC(=O)NC1(c2ccc(=O)[nH]c2)CCCCC1 [N-[1-(1,6-Dihydro-6-oxo-3-pyridinyl)cyclohexyl]acetamide] | 58 | –
5 | NC1(c2ccc(=O)n(CC#CCN3CCCC3)c2)CCCCC1 [5-(1-Aminocyclohexyl)-1-[4-(pyrrolidin-1-yl)-2-butynyl]-2(1H)-pyridinone] | 53 | –
6 | CNC(=O)Oc1ccc2c(c1)[C@]1(C)CCN(C)[C@@H]1N2C [Physostigmine, reference compound] | – | % of animals with scopolamine induced memory deficit reversal ([1]; 0.31 mg/kg): 20%
7 | Cl.NC1(c2ccc(=O)n(Cc3ccccc3)c2)CCCCC1 [5-(1-Aminocyclohexyl)-1-(phenylmethyl)-2(1H)-pyridinone hydrochloride] | 42 | % of animals with scopolamine induced memory deficit reversal ([1]; 0.16 mg/kg): 20%
8 | O=C(NC1(c2ccc(=O)[nH]c2)CCCCC1)c1ccccc1 [N-[1-(1,6-Dihydro-6-oxo-3-pyridinyl)cyclohexyl]benzamide] | 72 | –
9 | CC(=O)NC1(c2ccc(=O)n(C)c2)CCC(C(C)(C)C)CC1 (stereo not drawn) [cis-N-[1-(1,6-Dihydro-1-methyl-6-oxo-3-pyridinyl)-4-(1,1-dimethylethyl)cyclohexyl]acetamide] | 47 | % of animals with scopolamine induced memory deficit reversal ([1]; 1.3 mg/kg): 33%
10 | CC1(C)CCC(N)(c2ccc(=O)[nH]c2)CC1.Cl [5-(1-Amino-4,4-dimethylcyclohexyl)-2(1H)-pyridinone hydrochloride] | 62 | % of animals with scopolamine induced memory deficit reversal ([1]; 2.5 mg/kg): 20%
